The target of the assay is BRIL-δOR(ΔN/ΔC) (Sf9) (Homo sapiens, UniProt P41143, P37S). It counts as binding.

Each structure is given as a SMILES string.

Chain of BRIL-δOR(ΔN/ΔC) (Sf9) (P41143 36-338 P37S): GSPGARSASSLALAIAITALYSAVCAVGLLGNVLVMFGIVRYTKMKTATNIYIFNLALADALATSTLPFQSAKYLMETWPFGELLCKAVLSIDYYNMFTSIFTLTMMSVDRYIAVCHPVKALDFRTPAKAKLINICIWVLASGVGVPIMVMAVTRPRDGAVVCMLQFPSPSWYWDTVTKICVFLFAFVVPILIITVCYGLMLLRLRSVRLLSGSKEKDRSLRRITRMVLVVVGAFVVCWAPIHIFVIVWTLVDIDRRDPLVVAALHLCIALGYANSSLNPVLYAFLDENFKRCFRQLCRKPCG

For `[Na+]` [sodium], the “Hill Coefficient” value was 0.79 ± 0.02, the “Na+ pKB ± SEM” value is 1.79 ± 0.11, the “pα ± SEM” value is 0.86 ± 0.05 and the α is listed as 0.138. The Kb (read-out: Na+ KB) came out at 15.9 mM.

For the origin of these results see article PMC3931418 (Nature, 2014).
